Among the data in patent US20240217968A1, “PHARMACEUTICAL COMPOUND” (DUKE STREET BIO LIMITED, priority 2021, published 2024) are IC50 values, retold here.

Broadly, the IC50 is the concentration that inhibits the measured activity by half.

Each structure is given as a SMILES string.

For this test, the target named is T1, recombinant human Flag-tagged PARP7 (amino acids 456-657) (Homo sapiens, UniProt Q7Z3E1).
T1 construct: recombinant human Flag-tagged PARP7 (amino acids 456-657)
T1 sequence (Q7Z3E1 456-657): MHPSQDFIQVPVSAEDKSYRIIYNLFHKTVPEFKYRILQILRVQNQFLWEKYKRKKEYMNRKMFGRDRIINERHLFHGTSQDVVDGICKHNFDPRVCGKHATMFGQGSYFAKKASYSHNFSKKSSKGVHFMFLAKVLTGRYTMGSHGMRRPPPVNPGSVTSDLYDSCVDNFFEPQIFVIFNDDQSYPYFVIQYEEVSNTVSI
Nature of the test: PARP7 biochemical DELFIA assay (auto-MARylation). As to conditions: DELFIA readout, IC50 class. In a few lines: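 Readout is DELFIA time-resolved Eu fluorescence (Ex337 nm, Em620 nm) of biotin-ADP-ribose on immobilised Flag-tagged PARP7 456-657. Enzyme (12.5-37.5 nM as added) sat 30 min with compound before biotin-NAD+ (15 μM solution, pH 7.5 HEPES buffer) started 2-3 h room-temperature self-modification, stopped with excess NAD+.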
Turning to `CC(COCCC(=O)N1CCN(c2ncc(C(F)(F)F)cn2)CC1)n1cc(C(F)F)c2c(=O)[nH]ncc21` (single isomer, unassigned) [Compound 395, 3-(difluoromethyl)-1-(1-(3-oxo-3-(4-(5-(trifluoromethyl)pyrimidin-2-yl)piperazin-1-yl)propoxy)propan-2-yl)-1,5-dihydro-4H-pyrrolo[2,3-d]pyridazin-4-one], the IC50 was not above 100 nM.

For `N#Cc1ccc(N2CCN(C(=O)CCOCCc3cc(Cl)cc4c(=O)[nH]ncc34)CC2)nc1` [Compound 79], the IC50 is not above 100 nM.

For the compound `O=C(CCCOCc1cccc2c(=O)[nH]ncc12)N1CCN(c2ncc(C(F)(F)F)cn2)CC1` [Compound 124], the concentration for half-maximal inhibition (IC50) is not above 100 nM.

Take `N#Cc1cc(CCOCCC(=O)N2CCN(c3ncc(C(F)(F)F)cn3)CC2)c2cn[nH]c(=O)c2c1` [Compound 112]: the half-inhibitory concentration (IC50) lay within 100 to 1000 nM.

Regarding `O=C(CCOCCc1cncc2c(=O)[nH]ncc12)N1CCN(c2ncc(C(F)(F)F)cn2)CC1` [Compound 231], the IC50 is not above 100 nM.

`O=C(CCOCCc1cccc2c(=O)[nH]ncc12)N1CCC(Oc2ccccc2)CC1` [Compound 197]: the 50% inhibitory concentration (IC50) fell in the range of 100 to 1000 nM.

Consider `CC(COCCC(=O)N1CCN(c2ncc(Cl)cn2)CC1)n1nc(C(F)(F)F)c2c(=O)[nH]ncc21` (stereo not shown) [Compound 186], for which the IC50 is not above 100 nM.

Turning to `CC(COCCC(=O)N1CCN(c2ncccc2F)CC1)n1nc(C(F)(F)F)c2c(=O)[nH]ncc21` (single isomer, unassigned) [Compound 368], the IC50 was in the range of 100 to 1000 nM.

As to `CC(COCC(=O)N(C)C1CCN(c2ncc(C(F)(F)F)cn2)CC1)n1nc(C(F)(F)F)c2c(=O)[nH]ncc21` (single isomer, unassigned) [Compound 460, N-methyl-2-(2-(4-oxo-3-(trifluoromethyl)-4,5-dihydro-1H-pyrazolo[3,4-d]pyridazin-1-yl)propoxy)-N-(1-(5-(trifluoromethyl)pyrimidin-2-yl)piperidin-4-yl) acetamide], the concentration for half-maximal inhibition (IC50) was not above 100 nM.

Regarding `CN(C(=O)COCCn1cc(C(F)(F)F)c2c(=O)[nH]ncc21)C1CCN(c2ncc(C(F)(F)F)cn2)CC1` [Compound 385], the IC50 is not above 100 nM.

For `CC1CN(C(=O)CCOCCn2nc(C(F)(F)F)c3c(=O)[nH]ncc32)CCN1c1ncc(C(F)(F)F)cn1` (single isomer, unassigned) [Compound 187], the IC50 was not above 100 nM.

Take `CC(COCCC(=O)N1CCN(c2cc(C(F)(F)F)on2)CC1)n1nc(C(F)(F)F)c2c(=O)[nH]ncc21` (single isomer, unassigned) [Compound 430]: the IC50 fell in the range of 100 to 1000 nM.

For the compound `O=C(CCOCCc1cccc2c(=O)[nH]ncc12)N1CCC(c2cc(C(F)(F)F)on2)CC1` [Compound 219], the half-maximal inhibitory concentration (IC50) lay within 100 to 1000 nM.

Take `COCc1cc2c(=O)[nH]ncc2n1CCOCCC(=O)N1CCN(c2ncc(C(F)(F)F)cn2)CC1` [Compound 135]: the 50% inhibitory concentration (IC50) fell in the range of 100 to 1000 nM.

Consider `CC1CCc2c(cn[nH]c2=O)N1CCOCCC(=O)N1CCN(c2ncc(C(F)(F)F)cn2)CC1` (stereo not shown) [Compound 126], for which the IC50 is 100 to 1000 nM.

Take `CC(COCCC(=O)N1CCN(c2ccc(C#N)cn2)CC1)n1nc(C(F)F)c2c(=O)[nH]ncc21` (stereo not shown) [Compound 438]: the IC50 is not above 100 nM.

As for `CC1CN(c2ncc(C(F)(F)F)cn2)CCN1C(=O)CCOCCc1cccc2c(=O)[nH]ncc12` (stereo not shown) [Compound 87], the IC50 is not above 100 nM.

Take `CC(COCC(=O)N(C)C1CCN(c2ncc(C(F)(F)F)cn2)CC1)n1cc(C(F)(F)F)c2c(=O)[nH]ncc21` (single isomer, unassigned) [Compound 462]: the IC50 is not above 100 nM.

Turning to `O=C(CCOCCn1cc(C(F)(F)F)c2c(=O)[nH]ncc21)N1CCN(c2nc(C(F)(F)F)cs2)CC1` [Compound 341], the IC50 was not above 100 nM.

Regarding `[2H]C([2H])(OCCC(=O)N1CCN(c2ncc(C(F)(F)F)cn2)CC1)C(C)n1nc(C(F)(F)F)c2c(=O)[nH]ncc21` (single isomer, unassigned) [Compound 423], the IC50 is not above 100 nM.

As to `O=C1NCCn2c(CCOCCC(=O)N3CCN(c4ncc(C(F)(F)F)cn4)CC3)ccc21` [Compound 128], the half-inhibitory concentration (IC50) lay in the range of 100 to 1000 nM.

Take `CC(COCCC(=O)N1CCN(c2ccc(OC(F)(F)F)cn2)CC1)n1nc(C(F)(F)F)c2c(=O)[nH]ncc21` (single isomer, unassigned) [Compound 253]: the IC50 was not above 100 nM.

For `CC(COCC(=O)NC1CCN(c2ncc(C(F)(F)F)cn2)CC1)n1cc(C(F)(F)F)c2c(=O)[nH]ncc21` (single isomer, unassigned) [Compound 459], the IC50 is not above 100 nM.

Consider `Cc1nn(C(C)COCCC(=O)N2CCN(c3ncc(C#N)cn3)CC2)c2cn[nH]c(=O)c12` (single isomer, unassigned) [Compound 263], for which the half-maximal inhibitory concentration (IC50) was not above 100 nM.

Regarding `N#Cc1ccc(N2CCN(C(=O)c3cccc(CN4CCCc5c4cn[nH]c5=O)c3)CC2)nc1` [Compound 7], the concentration for half-maximal inhibition (IC50) was 100 to 1000 nM.

As to `O=C(CCOCCc1cccc2c(=O)[nH]ncc12)N1CCN(c2ncc(F)cn2)CC1` [Compound 99], the IC50 is not above 100 nM.

`O=C(CCOCCc1cc(C(F)(F)F)cc2c(=O)[nH]ncc12)N1CCN(c2ncc(C(F)(F)F)cn2)CC1` [Compound 69]: the IC50 was in the range of 100 to 1000 nM.

In the case of `O=C(c1cccc(Cc2cccc3c(=O)[nH]c(=O)[nH]c23)c1)N1CCN(C(=O)C2CC2)CC1` [Compound 19], the IC50 was in the range of 1000 to 10000 nM.

In the case of `CC(COCCn1nc(C(F)(F)F)c2c(=O)[nH]ncc21)C(=O)N1CCN(c2ncc(C(F)(F)F)cn2)CC1` (stereo not shown) [Compound 201], the IC50 was not above 100 nM.

Take `O=C(CCOCCc1cccc2c(=O)[nH]ncc12)N1CCC(c2ccc(Cl)cn2)CC1` [Compound 118]: the IC50 is 100 to 1000 nM.

`O=C(CCOCCn1nc(C(F)(F)F)c2c(=O)[nH]ncc21)N1CCN(c2nc(C(F)(F)F)cs2)CC1` [Compound 299]: the IC50 was not above 100 nM.

In the case of `CCn1cc(CCOCCC(=O)N2CCN(c3ncc(C(F)(F)F)cn3)CC2)c2cn[nH]c(=O)c21` [Compound 203, 1-ethyl-3-(2-(3-oxo-3-(4-(5-(trifluoromethyl)pyrimidin-2-yl)piperazin-1-yl)propoxy)ethyl)-1,6-dihydro-7H-pyrrolo[2,3-d]pyridazin-7-one], the IC50 was not above 100 nM.

With `O=C1NCCc2c(NCCOCC(=O)N3CCN(c4ncc(C(F)(F)F)cn4)CC3)cccc21` [Compound 117], the IC50 lay in the range of 1000 to 10000 nM.

Take `CC(COCCC(=O)N1CCN(c2noc(C(F)(F)F)n2)CC1)n1nc(C(F)(F)F)c2c(=O)[nH]ncc21` (stereo not shown) [Compound 345]: the half-inhibitory concentration (IC50) was 100 to 1000 nM.

Turning to `CC(COCCC(=O)N1CCN(c2ccc(C#N)cn2)CC1)n1nc(C(F)(F)F)c2c(=O)[nH]ncc21` (stereo not shown) [Compound 269], the half-inhibitory concentration (IC50) is not above 100 nM.

`CN(C(=O)COCCc1cccc2c(=O)[nH]ncc12)C1CCN(c2ncc(C(F)(F)F)cn2)CC1` [Compound 108]: the 50% inhibitory concentration (IC50) was not above 100 nM.

On to `CC(COCCC(=O)N1CCN(c2ccc(OC(F)(F)F)cn2)CC1)n1nc(C(F)(F)F)c2c(=O)[nH]ncc21` (single isomer, unassigned) [Compound 254], for which the concentration for half-maximal inhibition (IC50) was not above 100 nM.

Take `O=C(CCOCCN1C(=O)CCc2c1cn[nH]c2=O)N1CCN(c2ccc(Cl)cn2)CC1` [Compound 261]: the IC50 is not above 100 nM.

Take `N#Cc1ccc(N2CCN(C(=O)CCOCC(F)(F)c3cccc4c(=O)[nH]ncc34)CC2)nc1` [Compound 446]: the IC50 is not above 100 nM.

Turning to `Cc1cn(C(C)COCCC(=O)N2CCN(c3ncc(C(F)(F)F)cn3)CC2)c2cn[nH]c(=O)c12` (single isomer, unassigned) [Compound 151], the IC50 was not above 100 nM.

Consider `CC(COCCC(=O)N1CCN(c2ccc(C#N)cn2)CC1)N1CCCc2c1cn[nH]c2=O` (stereo not shown) [Compound 62], for which the IC50 fell in the range of 100 to 1000 nM.

For the compound `Cc1cn(CCOCCC(=O)N2CCN(c3ncc(C(F)(F)F)cn3)CC2)c2[nH]c(=O)[nH]c(=O)c12` [Compound 404], the 50% inhibitory concentration (IC50) is not above 100 nM.

`O=C(CCOCCN1CCc2c1cn[nH]c2=O)N1CCN(c2ncc(C(F)(F)F)cn2)CC1` [Compound 6]: the IC50 was in the range of 100 to 1000 nM.

For the compound `O=C(CCOCCN1CCOc2c1cn[nH]c2=O)N1CCN(c2ncc(C(F)(F)F)cn2)CC1` [Compound 12], the IC50 was in the range of 100 to 1000 nM.

As for `O=C(CCOCCn1ncc2c(=O)[nH]ncc21)N1CCN(c2ncc(C(F)(F)F)cn2)CC1` [Compound 50, 1-(2-(3-oxo-3-(4-(5-(trifluoromethyl)pyrimidin-2-yl)piperazin-1-yl)propoxy)ethyl)-1,5-dihydro-4H-pyrazolo[3,4-d]pyridazin-4-one], the half-inhibitory concentration (IC50) is not above 100 nM.

Consider `O=C(CCOCCn1cc(C(F)(F)F)c2c(=O)[nH]ncc21)N1CCN(c2ncc(Cl)cn2)CC1` [Compound 232], for which the half-inhibitory concentration (IC50) is not above 100 nM.

On to `O=C(CCOCCn1nc(C(F)(F)F)c2c(=O)[nH]ncc21)N1CCN(c2ncc(Cl)cn2)CC1` [Compound 285], for which the 50% inhibitory concentration (IC50) was not above 100 nM.

`N#Cc1ccc(N2CCN(C(=O)CCOCCc3cccc4c(=O)[nH]ncc34)CC2)nc1` [Compound 67]: the 50% inhibitory concentration (IC50) is not above 100 nM.

For `CC(CCOCC(=O)N1CCN(c2ncc(Cl)cn2)CC1)n1nc(C(F)(F)F)c2c(=O)[nH]ncc21` (stereo not shown) [Compound 453], the concentration for half-maximal inhibition (IC50) was not above 100 nM.

For the compound `CNCc1cc2c(=O)[nH]ncc2n1CCOCCC(=O)N1CCN(c2ncc(C(F)(F)F)cn2)CC1` [Compound 49], the half-inhibitory concentration (IC50) lay in the range of 100 to 1000 nM.

As for `CCc1nc2c(=O)[nH]ncc2n1CCOCCC(=O)N1CCN(c2ncc(C(F)(F)F)cn2)CC1` [Compound 260], the IC50 lay within 1000 to 10000 nM.

Consider `CC1(C)CN(C(=O)CCOCCn2cc(C(F)(F)F)c3c(=O)[nH]ncc32)CCN1c1ccc(C(F)(F)F)cn1` [Compound 237], for which the 50% inhibitory concentration (IC50) is not above 100 nM.
